Results as given in article PMC10412597, “Small molecule branched-chain ketoacid dehydrogenase kinase (BDK) inhibitors with opposing effects on BDK protein levels” (Nature Communications, 2023).

Columns and labels:
Acetylcholinesterase = target: T1, Acetylcholinesterase (Homo sapiens, UniProt P22303); set-up: Cerep Bioprint off-target panel, enzyme or kinase inhibition; conditions: inhibitor
T1 construct: gene ACHE
Procedure: (§1) To discover a potent and selective BDK inhibitor, a subset of the Pfizer compound collection was screened. […] Off target activity was assessed in both CEREP and kinase panels (Supplementary Tables 2, 3).

Abl Kinase = target: T2, Abl Kinase (Homo sapiens, UniProt P00519); set-up: Cerep Bioprint off-target panel, enzyme or kinase inhibition; conditions: inhibitor
T2 construct: gene ABL1
Procedure: as §1

[1] = target: T3, Angiotensin Coverting Enzyme (Homo sapiens, UniProt P12821); set-up: Cerep Bioprint off-target panel, enzyme or kinase inhibition; conditions: inhibitor
T3 construct: gene ACE
Procedure: as §1

Phosphodiesterase 3B = target: T4, Phosphodiesterase 3B (Homo sapiens, UniProt Q13370); set-up: Cerep Bioprint off-target panel, enzyme or kinase inhibition; conditions: inhibitor
T4 construct: gene PDE3B
Procedure: as §1

SRC = SRC (Homo sapiens, UniProt P12931); set-up: Cerep Bioprint off-target panel, enzyme or kinase inhibition; conditions: inhibitor
Procedure: as §1

EGFR Kinase = target: T5, EGFR Kinase (Homo sapiens, UniProt P00533); set-up: Cerep Bioprint off-target panel, enzyme or kinase inhibition; conditions: inhibitor
T5 construct: kinase
Procedure: as §1

Aurora A Kinase = target: T6, Aurora A Kinase (Homo sapiens, UniProt O14965); set-up: Cerep Bioprint off-target panel, enzyme or kinase inhibition; conditions: inhibitor
T6 construct: gene AURKA
Procedure: as §1

Kdr Kinase (VEGFR2) = Kdr Kinase (VEGFR2) (Homo sapiens, UniProt P35968); experiment: biochemical; set-up: Cerep Bioprint off-target panel, enzyme or kinase inhibition
Procedure: as §1

Choline Transporter = target: T7, Choline Transporter (Homo sapiens, UniProt Q9GZV3); set-up: Cerep Bioprint off-target panel, ligand binding inhibition; conditions: binder
T7 construct: gene SLC5A7
Procedure: as §1

GABAa1 Receptor = target: T8, GABAa1 Receptor (Homo sapiens, UniProt P14867+P18507+P47870); set-up: Cerep Bioprint off-target panel, ligand binding inhibition; conditions: binder
T8 construct: gene GABRA1; alpha1
T8 sequence (P14867 whole entry): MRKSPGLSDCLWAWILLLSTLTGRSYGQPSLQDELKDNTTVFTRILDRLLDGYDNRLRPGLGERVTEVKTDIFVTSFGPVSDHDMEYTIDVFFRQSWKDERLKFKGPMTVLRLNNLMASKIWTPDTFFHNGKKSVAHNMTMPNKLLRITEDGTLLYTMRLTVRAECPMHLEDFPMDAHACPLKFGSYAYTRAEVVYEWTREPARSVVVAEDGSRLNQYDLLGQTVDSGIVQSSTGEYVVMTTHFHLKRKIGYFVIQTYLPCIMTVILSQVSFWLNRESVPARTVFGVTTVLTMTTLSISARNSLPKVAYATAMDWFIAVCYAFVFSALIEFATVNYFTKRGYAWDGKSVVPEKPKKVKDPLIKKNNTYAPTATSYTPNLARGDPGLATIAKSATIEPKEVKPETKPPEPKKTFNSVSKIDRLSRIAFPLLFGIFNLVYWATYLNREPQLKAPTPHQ
T8 sequence (P18507 whole entry): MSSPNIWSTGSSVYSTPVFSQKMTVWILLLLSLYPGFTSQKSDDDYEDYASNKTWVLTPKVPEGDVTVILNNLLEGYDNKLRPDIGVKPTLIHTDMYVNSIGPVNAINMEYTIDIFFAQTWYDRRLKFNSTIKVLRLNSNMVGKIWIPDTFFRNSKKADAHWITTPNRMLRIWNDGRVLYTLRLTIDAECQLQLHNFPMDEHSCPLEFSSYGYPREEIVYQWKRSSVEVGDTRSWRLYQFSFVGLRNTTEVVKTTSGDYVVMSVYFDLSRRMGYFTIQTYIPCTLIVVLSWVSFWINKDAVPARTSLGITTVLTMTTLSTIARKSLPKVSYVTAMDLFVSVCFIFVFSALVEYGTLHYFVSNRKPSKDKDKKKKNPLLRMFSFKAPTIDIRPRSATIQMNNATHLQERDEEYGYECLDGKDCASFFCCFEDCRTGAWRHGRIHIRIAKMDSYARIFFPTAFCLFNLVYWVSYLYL
T8 sequence (P47870 whole entry): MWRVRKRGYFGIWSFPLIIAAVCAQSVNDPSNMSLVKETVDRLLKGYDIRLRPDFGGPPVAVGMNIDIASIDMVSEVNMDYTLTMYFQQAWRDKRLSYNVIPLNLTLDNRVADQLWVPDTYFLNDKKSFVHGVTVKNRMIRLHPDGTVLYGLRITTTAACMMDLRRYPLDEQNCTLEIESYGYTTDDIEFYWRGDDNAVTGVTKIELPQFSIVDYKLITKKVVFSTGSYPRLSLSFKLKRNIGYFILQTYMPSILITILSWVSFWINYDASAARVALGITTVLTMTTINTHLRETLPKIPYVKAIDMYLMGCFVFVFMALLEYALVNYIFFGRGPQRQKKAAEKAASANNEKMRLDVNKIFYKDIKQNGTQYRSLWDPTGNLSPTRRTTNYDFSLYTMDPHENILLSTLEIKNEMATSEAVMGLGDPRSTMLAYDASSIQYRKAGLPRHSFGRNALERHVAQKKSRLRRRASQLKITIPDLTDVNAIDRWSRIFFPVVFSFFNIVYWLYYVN
Procedure: as §1

Serotonin Transporter = target: T9, Serotonin Transporter (Homo sapiens, UniProt P31645); set-up: Cerep Bioprint off-target panel, ligand binding inhibition; conditions: binder
T9 construct: gene SLC6A4
T9 sequence (P31645 whole entry): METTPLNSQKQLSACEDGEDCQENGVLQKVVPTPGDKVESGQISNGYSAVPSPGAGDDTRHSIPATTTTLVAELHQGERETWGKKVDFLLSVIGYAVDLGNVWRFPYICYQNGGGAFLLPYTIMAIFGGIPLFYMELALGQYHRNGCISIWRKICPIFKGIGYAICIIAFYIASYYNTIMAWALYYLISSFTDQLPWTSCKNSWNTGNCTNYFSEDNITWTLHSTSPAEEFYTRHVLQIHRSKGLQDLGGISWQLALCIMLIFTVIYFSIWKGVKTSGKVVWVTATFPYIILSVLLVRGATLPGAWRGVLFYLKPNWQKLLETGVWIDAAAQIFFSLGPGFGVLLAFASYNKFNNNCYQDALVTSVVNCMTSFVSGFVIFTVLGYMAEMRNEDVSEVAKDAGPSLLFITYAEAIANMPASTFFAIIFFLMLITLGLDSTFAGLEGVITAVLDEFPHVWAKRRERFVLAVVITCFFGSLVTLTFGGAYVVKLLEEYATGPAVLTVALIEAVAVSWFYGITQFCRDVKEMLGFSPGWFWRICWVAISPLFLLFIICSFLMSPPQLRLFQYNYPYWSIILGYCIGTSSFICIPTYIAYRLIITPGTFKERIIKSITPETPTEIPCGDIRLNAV
Procedure: as §1

Dopamine Transporter = target: T10, Dopamine Transporter (Homo sapiens, UniProt Q01959); set-up: Cerep Bioprint off-target panel, ligand binding inhibition; conditions: binder
T10 construct: gene SLC6A3
Procedure: as §1

Androgen Receptor = target: T11, Androgen Receptor (Homo sapiens, UniProt P10275); set-up: Cerep Bioprint off-target panel, ligand binding inhibition; conditions: binder
T11 construct: gene AR
T11 sequence (P10275 whole entry): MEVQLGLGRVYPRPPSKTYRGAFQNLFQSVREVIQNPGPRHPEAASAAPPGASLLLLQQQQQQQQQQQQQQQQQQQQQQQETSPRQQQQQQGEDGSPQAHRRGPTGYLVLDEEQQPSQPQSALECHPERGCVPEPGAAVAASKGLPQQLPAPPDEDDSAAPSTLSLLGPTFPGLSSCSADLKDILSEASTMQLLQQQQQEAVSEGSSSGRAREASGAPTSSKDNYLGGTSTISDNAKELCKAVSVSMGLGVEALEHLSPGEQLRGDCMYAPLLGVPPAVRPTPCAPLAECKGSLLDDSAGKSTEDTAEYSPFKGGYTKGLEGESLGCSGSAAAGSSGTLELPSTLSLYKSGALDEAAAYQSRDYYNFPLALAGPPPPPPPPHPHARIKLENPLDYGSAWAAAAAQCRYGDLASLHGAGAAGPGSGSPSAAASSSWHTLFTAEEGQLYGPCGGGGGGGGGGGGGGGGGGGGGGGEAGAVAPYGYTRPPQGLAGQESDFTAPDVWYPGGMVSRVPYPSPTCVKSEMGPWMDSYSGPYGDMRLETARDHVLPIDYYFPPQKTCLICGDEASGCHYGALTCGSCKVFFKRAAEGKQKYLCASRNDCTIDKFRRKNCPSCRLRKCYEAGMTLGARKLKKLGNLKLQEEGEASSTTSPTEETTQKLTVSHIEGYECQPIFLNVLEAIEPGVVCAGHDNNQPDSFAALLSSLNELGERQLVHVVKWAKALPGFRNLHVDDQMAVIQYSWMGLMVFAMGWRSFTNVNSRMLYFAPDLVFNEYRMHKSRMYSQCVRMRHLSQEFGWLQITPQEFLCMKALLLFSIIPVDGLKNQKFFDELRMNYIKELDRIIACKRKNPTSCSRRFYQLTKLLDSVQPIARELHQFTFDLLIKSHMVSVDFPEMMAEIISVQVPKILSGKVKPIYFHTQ
Procedure: as §1

PPAR-gamma = target: T12, PPAR-gamma (Homo sapiens, UniProt P37231); set-up: Cerep Bioprint off-target panel, ligand binding inhibition; conditions: binder
T12 construct: gene PPARG
T12 sequence (P37231 1-505): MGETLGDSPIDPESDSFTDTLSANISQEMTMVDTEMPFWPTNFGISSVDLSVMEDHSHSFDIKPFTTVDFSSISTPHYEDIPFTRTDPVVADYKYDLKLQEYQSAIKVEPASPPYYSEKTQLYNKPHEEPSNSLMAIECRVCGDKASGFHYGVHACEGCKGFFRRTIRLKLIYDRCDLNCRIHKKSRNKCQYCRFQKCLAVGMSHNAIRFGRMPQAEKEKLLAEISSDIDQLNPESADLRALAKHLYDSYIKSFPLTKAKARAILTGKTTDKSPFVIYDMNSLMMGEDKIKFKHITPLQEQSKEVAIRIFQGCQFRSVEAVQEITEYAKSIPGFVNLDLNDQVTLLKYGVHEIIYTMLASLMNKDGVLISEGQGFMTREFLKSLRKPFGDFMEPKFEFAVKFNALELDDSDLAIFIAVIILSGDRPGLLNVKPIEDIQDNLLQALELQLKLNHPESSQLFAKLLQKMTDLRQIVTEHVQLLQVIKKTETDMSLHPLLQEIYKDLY
Procedure: as §1

Serotonin 5-HT3 = target: T13, Serotonin 5-HT3 (Homo sapiens, UniProt P46098); set-up: Cerep Bioprint off-target panel, ligand binding inhibition; conditions: binder
T13 construct: gene HTR3A
Procedure: as §1

Glucocorticoid Receptor = target: T14, Glucocorticoid Receptor (Homo sapiens, UniProt P04150); set-up: Cerep Bioprint off-target panel, ligand binding inhibition; conditions: binder
T14 construct: gene NR3C1
Procedure: as §1

[2] = target: T15, Norepinephrine Transporter (Homo sapiens, UniProt P23975); set-up: Cerep Bioprint off-target panel, ligand binding inhibition; conditions: binder
T15 construct: gene SLC6A2
Procedure: as §1

[3] = target: T16, Nicotinic Acetylcholine Receptor (alpha4, beta2 subunit containing) (Homo sapiens, UniProt P17787+P43681); set-up: Cerep Bioprint off-target panel, ligand binding inhibition; conditions: binder
T16 construct: gene CHRNB2
T16 sequence (P17787 whole entry): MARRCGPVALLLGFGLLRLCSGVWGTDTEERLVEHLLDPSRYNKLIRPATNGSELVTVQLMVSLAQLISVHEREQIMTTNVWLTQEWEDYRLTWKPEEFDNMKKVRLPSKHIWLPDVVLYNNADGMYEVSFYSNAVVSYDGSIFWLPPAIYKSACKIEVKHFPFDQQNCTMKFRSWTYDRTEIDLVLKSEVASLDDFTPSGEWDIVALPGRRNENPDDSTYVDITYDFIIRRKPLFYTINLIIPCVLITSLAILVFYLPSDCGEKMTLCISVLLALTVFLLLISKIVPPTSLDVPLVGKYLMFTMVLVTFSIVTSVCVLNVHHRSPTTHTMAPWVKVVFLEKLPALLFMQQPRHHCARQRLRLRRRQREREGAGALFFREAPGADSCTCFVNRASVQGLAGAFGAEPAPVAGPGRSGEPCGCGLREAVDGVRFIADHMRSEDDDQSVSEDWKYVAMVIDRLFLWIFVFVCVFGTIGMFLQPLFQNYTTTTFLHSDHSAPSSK
T16 sequence (P43681 whole entry): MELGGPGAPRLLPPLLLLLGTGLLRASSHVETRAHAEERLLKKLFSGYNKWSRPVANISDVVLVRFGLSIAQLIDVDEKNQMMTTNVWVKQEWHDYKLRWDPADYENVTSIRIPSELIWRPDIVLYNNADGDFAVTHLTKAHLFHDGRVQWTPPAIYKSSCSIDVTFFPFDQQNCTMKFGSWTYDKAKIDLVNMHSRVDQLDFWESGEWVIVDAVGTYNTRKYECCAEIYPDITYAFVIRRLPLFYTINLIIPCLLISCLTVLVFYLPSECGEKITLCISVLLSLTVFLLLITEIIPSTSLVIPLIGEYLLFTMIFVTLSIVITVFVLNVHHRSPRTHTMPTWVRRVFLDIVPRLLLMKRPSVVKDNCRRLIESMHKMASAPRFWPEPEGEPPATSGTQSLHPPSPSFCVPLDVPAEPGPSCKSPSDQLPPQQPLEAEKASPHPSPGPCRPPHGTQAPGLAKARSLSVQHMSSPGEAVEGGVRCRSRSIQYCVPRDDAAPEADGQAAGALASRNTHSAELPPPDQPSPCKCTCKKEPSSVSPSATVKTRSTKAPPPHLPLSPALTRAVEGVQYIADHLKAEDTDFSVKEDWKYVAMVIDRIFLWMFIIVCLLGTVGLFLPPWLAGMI
Procedure: as §1

Cannabinoid CB1 = target: T17, Cannabinoid CB1 (Homo sapiens, UniProt P21554); experiment: cell-based; set-up: Cerep Bioprint off-target panel, functional receptor agonism or antagonism
T17 construct: gene CNR1
Procedure: as §1

T1 sequence (P22303 whole entry): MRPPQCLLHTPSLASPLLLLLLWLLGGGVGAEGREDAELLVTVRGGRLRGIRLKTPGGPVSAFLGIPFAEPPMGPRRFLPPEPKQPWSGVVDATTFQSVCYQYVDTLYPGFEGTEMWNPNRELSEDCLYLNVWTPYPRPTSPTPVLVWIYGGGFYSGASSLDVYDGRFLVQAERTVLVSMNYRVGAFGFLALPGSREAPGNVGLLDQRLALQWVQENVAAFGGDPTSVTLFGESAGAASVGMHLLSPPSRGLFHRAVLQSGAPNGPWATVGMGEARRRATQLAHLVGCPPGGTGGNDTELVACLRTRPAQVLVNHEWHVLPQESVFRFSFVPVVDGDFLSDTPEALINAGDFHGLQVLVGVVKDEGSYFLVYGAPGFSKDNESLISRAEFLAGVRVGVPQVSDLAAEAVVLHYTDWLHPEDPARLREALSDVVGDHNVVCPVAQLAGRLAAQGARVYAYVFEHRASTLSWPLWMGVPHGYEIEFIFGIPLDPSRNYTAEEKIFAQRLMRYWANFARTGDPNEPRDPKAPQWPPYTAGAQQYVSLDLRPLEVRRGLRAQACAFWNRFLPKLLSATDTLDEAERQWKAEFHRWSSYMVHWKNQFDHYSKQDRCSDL

In the case of `O=C(O)c1sc2cc(F)sc2c1Cl` [PF-07208254, 3-chloro-5-fluorothieno[3,2-b]thiophene-2-carboxylic acid], the “% Inhibition PF-07208254” value (Acetylcholinesterase; 100 µM) is reported as -4%, the “% Inhibition PF-07208254” value (Abl Kinase; 100 µM) is reported as 42% and the “% Inhibition PF-07208254” value ([1]; 100 µM) is reported as -4%. For the same compound, the “% Inhibition PF-07208254” value (Phosphodiesterase 3B; 100 µM) was -9%, the “% Inhibition PF-07208254” value (SRC; 100 µM) was 11% and the “% Inhibition PF-07208254” value (EGFR Kinase; 100 µM) was 19%. For the same compound, the “% Inhibition PF-07208254” value (Aurora A Kinase; 100 µM) was 15%, the IC50 (Kdr Kinase (VEGFR2)) was 76 µM and the “% Inhibition (binding) PF-07208254” value (Choline Transporter; 100 µM) was -15%. For the same compound, the “% Inhibition (binding) PF-07208254” value (GABAa1 Receptor; 100 µM) was -12%, the “% Inhibition (binding) PF-07208254” value (Serotonin Transporter; 100 µM) was -3% and the “% Inhibition (binding) PF-07208254” value (Dopamine Transporter; 100 µM) was 7%. The “% Inhibition (binding) PF-07208254” value (Androgen Receptor; 100 µM) was -4%, the “% Inhibition (binding) PF-07208254” value (PPAR-gamma; 100 µM) was 62% and the “% Inhibition (binding) PF-07208254” value (Serotonin 5-HT3; 100 µM) was -14%. The “% Inhibition (binding) PF-07208254” value (Glucocorticoid Receptor; 100 µM) was 4%, the “% Inhibition (binding) PF-07208254” value ([2]; 100 µM) was -15% and the “% Inhibition (binding) PF-07208254” value ([3]; 100 µM) was -6%. For the same compound, the EC50 (Cannabinoid CB1) was 180 µM.

`CCC1(COc2ccc(-c3csc(-c4ccccc4C(=O)O)n3)cn2)CC1` [PF-07247685, 2-(4-{6-[(1-ethylcyclopropyl)methoxy]pyridin-3-yl}-1,3-thiazol-2-yl)benzoic acid] was tested, and the “% Inhibition PF-07247685” value (Acetylcholinesterase; 10 µM) was -4%, the “% Inhibition PF-07247685” value (Abl Kinase; 10 µM) was 11% and the “% Inhibition PF-07247685” value ([1]; 10 µM) was -31%. For the same compound, the “% Inhibition PF-07247685” value (Phosphodiesterase 3B; 10 µM) was -16%, the “% Inhibition PF-07247685” value (SRC; 10 µM) was -8% and the “% Inhibition PF-07247685” value (EGFR Kinase; 10 µM) was -6%. For the same compound, the “% Inhibition PF-07247685” value (Aurora A Kinase; 10 µM) was -7%, the “% Inhibition (binding) PF-07247685” value (Choline Transporter; 10 µM) was -12% and the “% Inhibition (binding) PF-07247685” value (GABAa1 Receptor; 10 µM) was -21%. For the same compound, the “% Inhibition (binding) PF-07247685” value (Serotonin Transporter; 10 µM) was 2%, the “% Inhibition (binding) PF-07247685” value (Dopamine Transporter; 10 µM) was -1% and the “% Inhibition (binding) PF-07247685” value (Androgen Receptor; 10 µM) was -8%. The “% Inhibition (binding) PF-07247685” value (PPAR-gamma; 10 µM) was 21%, the “% Inhibition (binding) PF-07247685” value (Serotonin 5-HT3; 10 µM) was 0% and the “% Inhibition (binding) PF-07247685” value (Glucocorticoid Receptor; 10 µM) was 0%. The “% Inhibition (binding) PF-07247685” value ([2]; 10 µM) was 6% and the “% Inhibition (binding) PF-07247685” value ([3]; 10 µM) was -4%.
